In PubChem BioAssay AID1963426 (Molecular Pharmacology Branch, DTP, NCI, 2024):

Tested on: 186277-243-T-J2-PDC complex spheroid growth, % test/control
Assay: Anticancer human tumor 186277-243-T-J2-PDC patient-derived colon adenocarcinoma cell line growth inhibition [Asc]
Conditions: for IC50: curve of first compound; for viability, T/C: stronger effect = lower value
Summary of the method: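 Complex spheroids combining tumor cells with HUVEC endothelial cells and human MSCs, at 37 degrees C, 5% CO2; agents tested alone or combined, half-log dilutions from at or near clinical Cmax, or 10 microM if Cmax unknown.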

[1] = second compound 0.03 µM, first compound 0.0316 µM
[2] = second compound 0.03 µM, first compound 0.1 µM
[3] = second compound 0.03 µM, first compound 0.316 µM
[4] = second compound 0.03 µM, first compound 1 µM
[5] = second compound 0.0949 µM, first compound 0.0316 µM
[6] = second compound 0.0949 µM, first compound 0.1 µM
[7] = second compound 0.0949 µM, first compound 0.316 µM
[8] = second compound 0.0949 µM, first compound 1 µM
[9] = second compound 0.3 µM, first compound 0.0316 µM
[10] = second compound 0.3 µM, first compound 0.1 µM
[11] = second compound 0.3 µM, first compound 0.316 µM
[12] = second compound 0.3 µM, first compound 1 µM
[13] = second compound 0.949 µM, first compound 0.0316 µM
[14] = second compound 0.949 µM, first compound 0.1 µM
[15] = second compound 0.949 µM, first compound 0.316 µM
[16] = second compound 0.949 µM, first compound 1 µM
[17] = second compound 3 µM, first compound 0.0316 µM
[18] = second compound 3 µM, first compound 0.1 µM
[19] = second compound 3 µM, first compound 0.316 µM
[20] = second compound 3 µM, first compound 1 µM
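Also: spheroids exposed to agents for 7 days.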
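For viability, T/C in this document: 100% = DMSO vehicle control wells.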

Compound | IC50 (second compound 0.03 µM) [nM] | IC50 (second compound 0.0949 µM) [nM] | IC50 (second compound 0.3 µM) [nM] | IC50 (second compound 0.949 µM) [nM] | IC50 (second compound 3 µM) [nM] | viability, T/C [1] [%] | viability, T/C [2] [%] | viability, T/C [3] [%] | viability, T/C [4] [%] | viability, T/C [5] [%] | viability, T/C [6] [%] | viability, T/C [7] [%] | viability, T/C [8] [%] | viability, T/C [9] [%] | viability, T/C [10] [%] | viability, T/C [11] [%] | viability, T/C [12] [%] | viability, T/C [13] [%] | viability, T/C [14] [%] | viability, T/C [15] [%] | also measured
C#Cc1c(F)ccc2cc(O)cc(-c3ncc4c(N5CC6CCC(C5)N6)nc(OCC56CCCN5CC(F)C6)nc4c3F)c12 (stereo not given) + CCN1C(C(=O)NC23CCC(C(=O)O)(CC2)CC3)C(c2cccc(Cl)c2F)C2(C(=O)Nc3cc(Cl)ccc32)C12CCCCC2 | 119 | 35.4 | < 31.6 | < 31.6 | < 31.6 | 57.1 | 55.3 | 24.1 | 7.49 | 52.6 | 26.3 | 7.13 | 3.79 | 27.4 | 8.1 | 3.14 | 2.06 | 16.2 | 5.72 | 2.81 | viability, T/C (second compound 0.03 µM, first compound 3.16 µM): 4.76%; viability, T/C (second compound 0.03 µM, first compound 10 µM): 2.76%; viability, T/C (second compound 0.0949 µM, first compound 3.16 µM): 2.21%; viability, T/C (second compound 0.0949 µM, first compound 10 µM): 2.17%; viability, T/C (second compound 0.3 µM, first compound 3.16 µM): 1.62%; viability, T/C (second compound 0.3 µM, first compound 10 µM): 1.41%; viability, T/C [16]: 2.32%; viability, T/C (second compound 0.949 µM, first compound 3.16 µM): 1.53%; viability, T/C (second compound 0.949 µM, first compound 10 µM): 1.08%; viability, T/C [17]: 7.02%; viability, T/C [18]: 3.62%; viability, T/C [19]: 2.69%; viability, T/C [20]: 2.2%; viability, T/C (second compound 3 µM, first compound 3.16 µM): 1.71%; viability, T/C (second compound 3 µM, first compound 10 µM): 1.33%
CNC(C)C(=O)NC1CN(S(=O)(=O)c2cccc(S(=O)(=O)N3CCC4CCC(C(=O)NC(c5ccccc5)c5ccccc5)N4C(=O)C(NC(=O)C(C)NC)C3)c2)CCC2CCC(C(=O)NC(c3ccccc3)c3ccccc3)N2C1=O (stereo not given) + CCN1C(C(=O)NC23CCC(C(=O)O)(CC2)CC3)C(c2cccc(Cl)c2F)C2(C(=O)Nc3cc(Cl)ccc32)C12CCCCC2 | > 1000 | > 1000 | > 1000 | 415 | < 3.16 | 113 | 102 | 113 | 112 | 111 | 94.9 | 82.5 | 84.9 | 87 | 77.2 | 77.2 | 56.6 | 56.7 | 55.7 | 55.6 | viability, T/C (second compound 0.03 µM, first compound 0.00316 µM): 101%; viability, T/C (second compound 0.03 µM, first compound 0.01 µM): 131%; viability, T/C (second compound 0.0949 µM, first compound 0.00316 µM): 115%; viability, T/C (second compound 0.0949 µM, first compound 0.01 µM): 114%; viability, T/C (second compound 0.3 µM, first compound 0.00316 µM): 73.6%; viability, T/C (second compound 0.3 µM, first compound 0.01 µM): 79.6%; viability, T/C (second compound 0.949 µM, first compound 0.00316 µM): 60.8%; viability, T/C (second compound 0.949 µM, first compound 0.01 µM): 54.8%; viability, T/C [16]: 32.4%; viability, T/C (second compound 3 µM, first compound 0.00316 µM): 36.9%; viability, T/C (second compound 3 µM, first compound 0.01 µM): 37.6%; viability, T/C [17]: 36.2%; viability, T/C [18]: 31.5%; viability, T/C [19]: 29.6%; viability, T/C [20]: 28.8%
